Laboratory results published in US8952024B2, “Herbicidal pyrimidone derivatives” (E I du Pont de Nemours and Company, priority 2009, dated 2015).

Tests used:
Assay type in all cases: in vivo
[1] = tested on: signalgrass (broadleaf signalgrass, Brachiaria platyphylla); assay: Test D pre-/postemergence plant response
In short: (§1)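 Seeds were sown in a loam–sand blend and sprayed preemergence with compound in a non-phytotoxic solvent mixture containing surfactant; plants at 2–18 cm (1- to 4-leaf stage) received the same formulation postemergence. After 14 to 21 days in a greenhouse, injury was rated visually against untreated controls (0 = no effect, 100 = complete control).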

[2] = tested on: goosegrass (Eleusine indica); assay: Test D pre-/postemergence plant response
In short: as §1

[3] = tested on: spanishneedles (Bidens bipinnata); assay: Test D pre-/postemergence plant response
In short: as §1

[4] = tested on: bermudagrass (Cynodon dactylon); assay: Test D pre-/postemergence plant response
In short: as §1

[5] = tested on: Russian thistle (Salsola kali); assay: Test D pre-/postemergence plant response
In short: as §1

[6] = tested on: nutsedge (purple nutsedge, Cyperus rotundus); assay: Test D pre-/postemergence plant response
In short: as §1

kochia (Kochia scoparia) = assay: Test D pre-/postemergence plant response
In short: as §1

[7] = tested on: Surinam grass (Brachiaria decumbens); assay: Test D pre-/postemergence plant response
In short: as §1

[8] = tested on: bluegrass (annual bluegrass, Poa annua); assay: Test D pre-/postemergence plant response
In short: as §1

[9] = tested on: large crabgrass (Digitaria sanguinalis); assay: Test D pre-/postemergence plant response
In short: as §1

[10] = tested on: sunflower (common oilseed sunflower, Helianthus annuus); assay: Test B pre-/postemergence plant response; settings: Preemergence
In short: (§2)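 Plants treated either at seeding (loam/sand soil) or postemergence at 2 to 18 cm height, using a surfactant-containing non-phytotoxic solvent formulation. Evaluation was visual after 13 to 15 days, 0 to 100 scale relative to controls.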

[11] = tested on: galium (catchweed bedstraw, Galium aparine); assay: Test B pre-/postemergence plant response; settings: Preemergence
In short: as §2

[12] = tested on: nightshade (eastern black nightshade, Solanum ptycanthum); assay: Test B pre-/postemergence plant response; settings: Preemergence
In short: as §2

[13] = Postemergence, 31 g ai/ha, scale 0 to 100
[14] = Postemergence, 62 g ai/ha, scale 0 to 100 (0 no effect, 100 complete control)
[15] = Postemergence, 125 g ai/ha, scale 0 to 100 (0 no effect, 100 complete control)
[16] = Postemergence, 250 g ai/ha, scale 0 to 100 (0 no effect, 100 complete control)
[17] = Preemergence, 125 g ai/ha, scale 0 to 100
[18] = Preemergence, 250 g ai/ha, scale 0 to 100
[19] = Preemergence, 62 g ai/ha, scale 0 to 100
[20] = 31 g ai/ha, scale 0 to 100 (0 no effect, 100 complete control)
[21] = 62 g ai/ha, scale 0 to 100 (0 no effect, 100 complete control)
[22] = 125 g ai/ha, scale 0 to 100, 0 no effect, 100 complete control
[23] = Postemergence, 31 g ai/ha, scale 0 to 100 (0 no effect, 100 complete control)

Compound: COCCn1c(-c2cc(F)cc(F)c2)ncc(C(=O)C2=C(O)C3CCC(C3)C2=O)c1=O (stereo not shown) [Compound 243, 2-(3,5-difluorophenyl)-5-[(2-hydroxy-4-oxobicyclo[3.2.1]oct-2-en-3-yl)carbonyl]-3-(2-methoxyethyl)-4(3H)-pyrimidinone]
- Plant response rating, Signalgrass [1, 13]: 50
- Plant response rating, Signalgrass [1, 14]: 75
- Plant response rating, Signalgrass [1, 15]: 75
- Plant response rating, Signalgrass [1, 16]: 95
- Plant response rating, Signalgrass [1, 17]: 95
- Plant response rating, Signalgrass [1, 18]: 100
- Plant response rating, Goosegrass [2, 13]: 65
- Plant response rating, Goosegrass [2, 14]: 70
- Plant response rating, Goosegrass [2, 15]: 70
- Plant response rating, Goosegrass [2, 16]: 75
- Plant response rating, Goosegrass [2, 19]: 100
- Plant response rating, Goosegrass [2, 17]: 100
- Plant response rating, Goosegrass [2, 18]: 100
- Plant response rating, Spanishneedles [3, 13]: 60
- Plant response rating, Spanishneedles [3, 14]: 65
- Plant response rating, Spanishneedles [3, 15]: 70
- Plant response rating, Spanishneedles [3, 16]: 70
- Plant response rating, Spanishneedles [3, 17]: 100
- Plant response rating, Spanishneedles [3, 18]: 100
- Plant response rating, Bermudagrass [4, 13]: 75
- Plant response rating, Bermudagrass [4, 14]: 85
- Plant response rating, Bermudagrass [4, 15]: 95
- Plant response rating, Bermudagrass [4, 16]: 95
- Plant response rating, Bermudagrass [4, 19]: 100
- Plant response rating, Bermudagrass [4, 17]: 100
- Plant response rating, Bermudagrass [4, 18]: 100
- Plant response rating, Russian Thistle [5, 13]: 20
- Plant response rating, Russian Thistle [5, 14]: 30
- Plant response rating, Russian Thistle [5, 15]: 30
- Plant response rating, Russian Thistle [5, 16]: 60
- Plant response rating, Russian Thistle [5, 17]: 100
- Plant response rating, Russian Thistle [5, 18]: 100
- Plant response rating, Nutsedge, Purple [6, 13]: 20
- Plant response rating, Nutsedge, Purple [6, 14]: 25
- Plant response rating, Nutsedge, Purple [6, 15]: 25
- Plant response rating, Nutsedge, Purple [6, 16]: 50
- Plant response rating, Nutsedge, Purple [6, 19]: 20
- Plant response rating, Nutsedge, Purple [6, 17]: 100
- Plant response rating, Nutsedge, Purple [6, 18]: 100
- Plant response rating, Kochia (kochia (Kochia scoparia); [13]): 50
- Plant response rating, Kochia (kochia (Kochia scoparia); [14]): 60
- Plant response rating, Kochia (kochia (Kochia scoparia); [15]): 70
- Plant response rating, Kochia (kochia (Kochia scoparia); [16]): 75
- Plant response rating, Kochia (kochia (Kochia scoparia); [19]): 80
- Plant response rating, Kochia (kochia (Kochia scoparia); [17]): 100
- Plant response rating, Kochia (kochia (Kochia scoparia); [18]): 100
- Plant response rating, Surinam Grass [7, 13]: 75
- Plant response rating, Surinam Grass [7, 14]: 75
- Plant response rating, Surinam Grass [7, 15]: 75
- Plant response rating, Surinam Grass [7, 16]: 85
- Plant response rating, Surinam Grass [7, 17]: 100
- Plant response rating, Surinam Grass [7, 18]: 100
- Plant response rating, Bluegrass [8, 13]: 5
- Plant response rating, Bluegrass [8, 14]: 5
- Plant response rating, Bluegrass [8, 15]: 35
- Plant response rating, Bluegrass [8, 16]: 35
- Plant response rating, Bluegrass [8, 19]: 40
- Plant response rating, Bluegrass [8, 17]: 95
- Plant response rating, Bluegrass [8, 18]: 100
- Plant response rating, Crabgrass, Large [9, 13]: 75
- Plant response rating, Crabgrass, Large [9, 14]: 80
- Plant response rating, Crabgrass, Large [9, 15]: 85
- Plant response rating, Crabgrass, Large [9, 16]: 85
- Plant response rating, Crabgrass, Large [9, 19]: 100
- Plant response rating, Crabgrass, Large [9, 17]: 100
- Plant response rating, Crabgrass, Large [9, 18]: 100
- Plant response rating, Sunflower [10, 20]: 80
- Plant response rating, Sunflower [10, 21]: 85
- Plant response rating, Sunflower [10, 22]: 95
- Sunflower plant response rating ([10]; 250 g ai/ha, 0 to 100 scale): 95
- Plant response rating, Galium [11, 20]: 85
- Plant response rating, Galium [11, 21]: 90
- Plant response rating, Galium [11, 22]: 98
- Galium plant response rating ([11]; 250 g ai/ha, 0 to 100 scale): 100
- Plant response rating, Nightshade [12, 20]: 90
- Plant response rating, Nightshade [12, 21]: 98
- Plant response rating, Nightshade [12, 22]: 98
- Nightshade plant response rating ([12]; 250 g ai/ha, 0 to 100 scale): 98

Compound: COCCn1c(-c2cccc(F)c2)ncc(C(=O)C2=C(O)C3CCC(C3)C2=O)c1=O (stereo not shown) [Compound 235]
- Plant response rating, Signalgrass [1, 13]: 65
- Plant response rating, Signalgrass [1, 14]: 90
- Plant response rating, Signalgrass [1, 15]: 90
- Plant response rating, Signalgrass [1, 16]: 95
- Plant response rating, Goosegrass [2, 13]: 75
- Plant response rating, Goosegrass [2, 14]: 75
- Plant response rating, Goosegrass [2, 15]: 75
- Plant response rating, Goosegrass [2, 16]: 75
- Plant response rating, Spanishneedles [3, 13]: 65
- Plant response rating, Spanishneedles [3, 14]: 70
- Plant response rating, Spanishneedles [3, 15]: 80
- Plant response rating, Spanishneedles [3, 16]: 85
- Plant response rating, Bermudagrass [4, 23]: 80
- Plant response rating, Bermudagrass [4, 14]: 95
- Plant response rating, Bermudagrass [4, 15]: 95
- Plant response rating, Bermudagrass [4, 16]: 95
- Plant response rating, Russian Thistle [5, 13]: 30
- Plant response rating, Russian Thistle [5, 14]: 30
- Plant response rating, Russian Thistle [5, 15]: 50
- Plant response rating, Russian Thistle [5, 16]: 60
- Plant response rating, Nutsedge, Purple [6, 13]: 5
- Plant response rating, Nutsedge, Purple [6, 14]: 5
- Plant response rating, Nutsedge, Purple [6, 15]: 30
- Plant response rating, Nutsedge, Purple [6, 16]: 40
- Plant response rating, Kochia (kochia (Kochia scoparia); [13]): 20
- Plant response rating, Kochia (kochia (Kochia scoparia); [14]): 60
- Plant response rating, Kochia (kochia (Kochia scoparia); [15]): 70
- Plant response rating, Kochia (kochia (Kochia scoparia); [16]): 85
- Plant response rating, Surinam Grass [7, 13]: 75
- Plant response rating, Surinam Grass [7, 14]: 75
- Plant response rating, Surinam Grass [7, 15]: 75
- Plant response rating, Surinam Grass [7, 16]: 85
- Plant response rating, Bluegrass [8, 23]: 5
- Plant response rating, Bluegrass [8, 14]: 20
- Plant response rating, Bluegrass [8, 15]: 35
- Plant response rating, Bluegrass [8, 16]: 50
- Plant response rating, Crabgrass, Large [9, 13]: 70
- Plant response rating, Crabgrass, Large [9, 14]: 75
- Plant response rating, Crabgrass, Large [9, 15]: 75
- Plant response rating, Crabgrass, Large [9, 16]: 80
